Assay results reported in PubChem BioAssay (NCI).
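A five-concentration, 48-hour dose response in 96-well plates underlies each endpoint, interpolated linearly between surrounding concentrations. GI50 is the concentration that inhibits growth by half. The concentration for full growth arrest is given as TGI.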

How the values were obtained:
Test in all cases: DTP human tumour cell line panel, 48 h
[1] = system: 786-0 renal
[2] = system: A498 renal
[3] = system: A549 NSCLC
[4] = system: ACHN renal
[5] = system: BT-549 breast
[6] = system: CAKI-1 renal
[7] = system: CCRF-CEM leukemia
[8] = system: COLO 205 colon
[9] = system: DU-145 prostate
[10] = system: HCC-2998 colon
[11] = system: HCT-116 colon
[12] = system: HCT-15 colon
[13] = system: HL-60(TB) leukemia
[14] = system: HOP-62 NSCLC
[15] = system: HOP-92 NSCLC
[16] = system: HS 578T breast
[17] = system: HT29 colon
[18] = system: IGROV1 ovarian
[19] = system: K-562 leukemia
[20] = system: KM12 colon
[21] = system: LOX IMVI melanoma
[22] = system: M14 melanoma
[23] = system: MALME-3M melanoma
[24] = system: MCF7 breast
[25] = system: MDA-MB-231 breast
[26] = system: MDA-MB-435
[27] = system: MOLT-4 leukemia
[28] = system: NCI-H226 lung
[29] = system: NCI-H23 lung
[30] = system: NCI-H460 lung
[31] = system: NCI-H522 lung
[32] = system: NCI/ADR-RES ovarian
[33] = system: OVCAR-3 ovarian
[34] = system: OVCAR-4 ovarian
[35] = system: OVCAR-5 ovarian
[36] = system: OVCAR-8 ovarian
[37] = system: PC-3 prostate
[38] = system: RPMI-8226 leukemia
[39] = system: RXF 393 renal
[40] = system: SF-268 CNS
[41] = system: SF-295 CNS
[42] = system: SF-539 CNS
[43] = system: SK-MEL-2 melanoma
[44] = system: SK-MEL-28 melanoma
[45] = system: SK-MEL-5 melanoma
[46] = system: SK-OV-3 ovarian
[47] = system: SN12C renal
[48] = system: SNB-19 CNS
[49] = system: SNB-75 CNS
[50] = system: SR leukemia
[51] = system: SW-620 colon
[52] = system: T-47D breast
[53] = system: TK-10 renal
[54] = system: U251 CNS
[55] = system: UACC-257 melanoma
[56] = system: UACC-62 melanoma
[57] = system: UO-31 renal

Molecule `COc1cc(F)c(F)c(F)c1C(=O)c1cnc(NC2CCN(S(C)(=O)=O)CC2)nc1N` has a GI50 [1] of 1.64 µM, a TGI [1] greater than 21.5 µM and a GI50 [2] of 1.28 µM. It also gave a TGI [2] of 6.69 µM, a GI50 [3] of 1 µM and a TGI [3] greater than 25 µM. It also gave a GI50 [4] of 0.906 µM, a TGI [4] greater than 25 µM and a GI50 [5] of 3.23 µM. For the same molecule, the TGI [5] was 8.35 µM, the GI50 [6] was 0.843 µM and the TGI [6] was 10.8 µM. It also gave a GI50 [7] of 1.21 µM, a TGI [7] greater than 25 µM and a GI50 [8] of 0.783 µM. It also gave a TGI [8] of 4.49 µM, a GI50 [9] of 2.58 µM and a TGI [9] greater than 22 µM. The GI50 [10] was 2.87 µM, the TGI [10] was greater than 21.6 µM and the GI50 [11] was 0.56 µM. The TGI [11] was greater than 25 µM, the GI50 [12] was 1.32 µM and the TGI [12] was greater than 25 µM. It also gave a GI50 [13] of 0.244 µM, a TGI [13] of 6.31 µM and a GI50 [14] of 2.11 µM. It also gave a TGI [14] of 16.2 µM, a GI50 [15] of 0.41 µM and a TGI [15] of 7.11 µM. It also gave a GI50 [16] of 3.17 µM, a TGI [16] of 18.1 µM and a GI50 [17] of 1.07 µM. For the same molecule, the TGI [17] was 15.2 µM, the GI50 [18] was 1.12 µM and the TGI [18] was 21 µM. For the same molecule, the GI50 [19] was 4.78 µM, the TGI [19] was greater than 25 µM and the GI50 [20] was 0.958 µM. The TGI [20] was greater than 14.4 µM, the GI50 [21] was 1.04 µM and the TGI [21] was greater than 13 µM. For the same molecule, the GI50 [22] was 3.09 µM, the TGI [22] was 10.2 µM and the GI50 [23] was 3.95 µM. The TGI [23] was 11.3 µM, the GI50 [24] was 0.166 µM and the TGI [24] was greater than 25 µM. The GI50 [25] was 1.26 µM, the TGI [25] was 16 µM and the GI50 [26] was 0.782 µM. It also gave a TGI [26] of 7.18 µM, a GI50 [27] of 0.845 µM and a TGI [27] of 11.4 µM. The GI50 [28] was 1.86 µM, the TGI [28] was 15.7 µM and the GI50 [29] was 1.24 µM. It also gave a TGI [29] of 14.8 µM, a GI50 [30] of 0.428 µM and a TGI [30] greater than 25 µM. It also gave a GI50 [31] of 5.56 µM, a TGI [31] of 15.6 µM and a GI50 [32] of 5.16 µM. It also gave a TGI [32] greater than 25 µM, a GI50 [33] of 2.33 µM and a TGI [33] greater than 19 µM. For the same molecule, the GI50 [34] was 3.29 µM, the TGI [34] was greater than 25 µM and the GI50 [35] was 1.45 µM. The TGI [35] was greater than 25 µM, the GI50 [36] was 2.28 µM and the TGI [36] was greater than 25 µM. For the same molecule, the GI50 [37] was 0.476 µM, the TGI [37] was 9.3 µM and the GI50 [38] was 0.417 µM. For the same molecule, the TGI [38] was 9.66 µM, the GI50 [39] was 0.534 µM and the TGI [39] was 1.98 µM. For the same molecule, the GI50 [40] was 2.78 µM, the TGI [40] was greater than 18.9 µM and the GI50 [41] was 1.58 µM. It also gave a TGI [41] greater than 9.45 µM, a GI50 [42] of 1.24 µM and a TGI [42] of 6.06 µM. For the same molecule, the GI50 [43] was 3.02 µM, the TGI [43] was 7.46 µM and the GI50 [44] was 2.24 µM. The TGI [44] was 18.4 µM, the GI50 [45] was 0.986 µM and the TGI [45] was greater than 23.6 µM. The GI50 [46] was 11.6 µM, the TGI [46] was greater than 25 µM and the GI50 [47] was 1.96 µM. It also gave a TGI [47] greater than 25 µM, a GI50 [48] of 1.39 µM and a TGI [48] greater than 25 µM. For the same molecule, the GI50 [49] was 3.65 µM, the TGI [49] was 8.75 µM and the GI50 [50] was 0.371 µM. For the same molecule, the TGI [50] was greater than 10 µM, the GI50 [51] was 0.409 µM and the TGI [51] was greater than 25 µM. It also gave a GI50 [52] of 2.64 µM, a TGI [52] greater than 24.1 µM and a GI50 [53] of 1.6 µM. It also gave a TGI [53] of 24.7 µM, a GI50 [54] of 0.78 µM and a TGI [54] greater than 25 µM. The GI50 [55] was 3 µM, the TGI [55] was 14 µM and the GI50 [56] was 1.49 µM. The TGI [56] was 7.98 µM, the GI50 [57] was 1.6 µM and the TGI [57] was 13.4 µM.
